In brackets after ≈: the same amount, converted by molar mass. Read-outs that look alike come from different tables or passages of the source.
Columns and labels:
[1] = tested on: Plasmodium berghei NK65 strain; experiment: Cure test by oral administration to mice infected with malaria; format: in vivo; conditions: for inhibition in vivo at 100 mg/kg: Plasmodium berghei, infected ICR mice, suppression vs control; for inhibition in vivo at 100 mg/kg / Days of survival: oral, 1 dose, 100 mg/kg; for Days of survival: mean days to death minus that of control mice; for Effectiveness in the in vivo malaria test, in words: oral administration to mice infected with rodent malaria
Procedure: In this experiment, rodent malaria parasites (the Plasmodium berghei NK65 strain) were used.
The infected blood to be used was subcultured in ICR female SPF mice infected by intraperitoneal or tail vein administration at 4 to 6 weeks old (20 to 26 g). […] Thereafter, based on the number of red cells (cells/ml) and the rate of infection by the protozoans, the blood was diluted with phys'iological saline such that a density of […] malaria parasites/1 ml dose was attained. This was used for infection of uninfected mice (ICR female mice, 5 weeks old) in an amount of 0.2 ml/20 g body weight, through the tail vein (Day-0). The compound used in the test was dissolved in 10% DMSO solution (a mixture of 1 ml of DMSO and 9 ml of 5% glucose solution).
Each group contained 4 mice, and the compound was orally administered to the mice 24 hours after their infection with malaria (Day-1), in an amount calculated such that 100 mg of the compound was administered per 1 kg of the body weight of a mouse. On the other hand, in terms of cases in which the amount was calculated such that 30 mg of the compound was administered per 1 kg of the body weight of a mouse, the oral administration was carried out a total of three times, that is, 24 hours (Day-1), 48 hours (Day-2) and 72 hours (Day-3) after the infection of malaria.
Blood was collected from the tails of each mouse 96 hours (Day-4) and 144 hours (Day-6) after the infection with malaria, and thin blood films were prepared. Under the microscope, the numbers of infection of malaria parasites in the group to which the compound was administered and the control group (to which the compound was not administered) were measured, and the rates of infection with malaria parasites (Parasitemia) were calculated.
From the rate of infection with malaria parasites calculated as above, the cure rate (Suppression) in the case of administration of the drug was calculated according to the following equation. Cure rate: Suppression (%)=(B−A)/B×100
A: Rate of infection with the protozoans in a mouse to which the present test compound was administered
B: Rate of infection with the parasites in a control mouse (to which the compound was not administered) Days of survival: MSD (day)=C−D
C: the average number of days from the date of infection with malaria to the date of death in the mice to which the present test compound was administered
D: The average number of days from the date of infection with malaria to the date of death in the 4 individuals of control mice (to which the compound was not administered)
Further, by observation of changes in the body weight, hair glossiness and the like of each mouse, side effects such as acute toxicity due to administration of the compound were evaluated.

[2] = tested on: Trypanosoma brucei rhodesiense (STIB 900 strain); experiment: African trypanosome protozoa growth inhibition screening test; format: cell-based
Procedure: In the present experiment, protozoa of Tripanosoma brucei rhodensiense (STIB 900 Strain), a trypomastigote living in blood stream, was used. The medium used in the experiment was a MEM medium which was sterilized with a filter and supplemented with 25 mM N-2-hydroxyeihylpiperazine-2-ethansulfonic acid (HEPES), 1 g/L glucose, 1% MEM non-essential amino acid, 0.2 mM 2-mercaptoethanol, 2 mM sodium pyruvate, 0.1 mM hypoxanthine, and 15% heat-treated horse serum. The protozoa was cultured in an atmosphere of CO2 concentration 5%, at a temperature of 37° C.
The compounds of the present invention to be used in the present test and the positive control drug (melarsoprol) were dissolved in dimethylsulfoxide (DMSO) to make a test solution of a predetermined concentration.
A medium containing 8×10^3 protozoa, and a test solution containing a drug of a predetermined concentration of a drug-free DMSO were added to wells of a 96-well culture plate, and subsequently, medium was added so that the amount in each well becomes 100 μL. Test solutions were taken by duplicates.
After culturing the culture plate for 72 hours in an incubator, growth inhibition activity was tested. Test was conducted as follows. 10 μL of Alamar Blue aqueous solution was added to each well, and the resultant was further cultured for 2 hours. Next, the culture plate was placed on a fluorescent micro-plate reader (Spectramax Gemeni XS; US Molecular Device), radiated at an excited wavelength of 536 nm. Fluorescent intensity was measured at 588 nm, to calculate the trypanosome protozoa infected rate of the test solution added-group, and of the control group.
Growth inhibition rate (%)={1−(b−a)/(c−a)}×100 • a: early infection rate • b: infection rate when test solution was added • c: infection rate of the control

[3] = 96 h, read-out: Cure rate (%) Day-4
[4] = 144 h, read-out: Cure rate (%) Day-6
[5] = Table 6, unit inferred, read-out: Trypanosoma brucei rhod.

| SMILES | inhibition in vivo at 100 mg/kg [1, 3] | inhibition in vivo at 100 mg/kg [1, 4] | Days of survival [1] | EC50 ([2]; Table 5, 72 hours, Alamar Blue, read-out: 50% Growth inhibition concentration Trypanosoma brucei rhod.) | Effectiveness in the in vivo malaria test, in words [1] | EC50 [2, 5] |
| --- | --- | --- | --- | --- | --- | --- |
| CCN(CC)c1ccc2nc3c4ccccc4c(=Nc4ccc5ccccc5n4)cc-3oc2c1 [Compound 1H, N,N-Diethyl-5-(quinolin-2-ylimino)-5H-benzo[a]phenoxazin-9-amine] | 81% | 71% | 4.3 days | 4.6 µg/mL (≈ 10.3 µM) | – | – |
| CCN(CCNS(C)(=O)=O)c1cc(C)c2nc3c4ccccc4c(=Nc4ccccn4)cc-3oc2c1 [Compound 1S, N-Ethyl-N-(2-methansulfonamidylethyl)-11-methyl-5-(pyridine-2-ylimino)-5H-benzo[a]phenoxazin-9-amine] | 100% | 100% | 11.3 days | – | excellent cure effects | 0.714 µg/mL (≈ 1.42 µM) |
| CCN(CCNS(C)(=O)=O)c1cc(C)c2nc3c4ccccc4c(=Nc4ccncc4)cc-3oc2c1 [Compound 1R, N-Ethyl-N-(2-methansulfonamidylethyl)-11-methyl-5-(pyridine-4-ylimino)-5H-benzo[a]phenoxazin-9-amine] | 100% | 95.7% | 15.7 days | – | excellent cure effects | 5.34 µg/mL (≈ 10.7 µM) |

— patent publication US8288374B2, “Medicinal composition containing benzo[a]phenoxazine compound as the active ingredient for prevention or treatment of protozoal disease” (Hoshi University, priority 2008, dated 2012)
